Test: Inhibition of CSF1R in mouse MNFS-60 cells assessed as reduction in CSF-induced cell viability after 48 hrs by Ez-cytox reagent based assay

Row | Compound | IC50 [nM]
1 | FC(F)(F)c1ccc(CNc2ccc(Cc3c[nH]c4ncc(Cl)cc34)cn2)cn1 | 14
2 | CCN1CCN(Cc2ccc(C(=O)Nc3ccc(C)c(NCc4cnc5cccnn45)c3)cc2C(F)(F)F)CC1 | 660
3 | CCN1CCN(Cc2ccc(C(=O)Nc3ccc(C)c(NCc4cnc5ccc(OC)nn45)c3)cc2C(F)(F)F)CC1 | 406
4 | CCN1CCN(Cc2ccc(NC(=O)c3ccc(C)c(NC(=O)c4cnc5cccnn45)c3)cc2C(F)(F)F)CC1 | 122
5 | CCN1CCN(Cc2ccc(C(=O)Nc3ccc(C)c(NC(=O)c4cnc5cccnn45)c3)cc2C(F)(F)F)CC1 | 178
6 | CCN1CCN(Cc2ccc(C(=O)Nc3ccc(C)c(NC(=O)c4cnnc5ccccc45)c3)cc2C(F)(F)F)CC1 | 1600
7 | CCN1CCN(Cc2ccc(C(=O)Nc3ccc(C)c(NC(=O)c4cnc5ccccn45)c3)cc2C(F)(F)F)CC1 | 149
8 | CCN1CCN(Cc2ccc(C(=O)Nc3ccc(C)c(NC(=O)c4cnn5ccccc45)c3)cc2C(F)(F)F)CC1 | 91
9 | CCN1CCN(Cc2ccc(C(=O)Nc3ccc(C)c(NC(=O)c4cnc5ncccn45)c3)cc2C(F)(F)F)CC1 | 4170
10 | CCN1CCN(Cc2ccc(C(=O)Nc3ccc(C)c(NC(=O)c4n[nH]c5ccccc45)c3)cc2C(F)(F)F)CC1 | 1580
11 | CCN1CCN(Cc2ccc(C(=O)Nc3ccc(C)c(NC(=O)c4n[nH]c5ncccc45)c3)cc2C(F)(F)F)CC1 | 254
12 | CCN1CCN(Cc2ccc(C(=O)Nc3ccc(C)c(NC(=O)c4cc[nH]n4)c3)cc2C(F)(F)F)CC1 | 4720
13 | CCN1CCN(Cc2ccc(C(=O)Nc3ccc(C)c(NC(=O)c4ccn(C)n4)c3)cc2C(F)(F)F)CC1 | 5150
14 | CCN1CCN(Cc2ccc(C(=O)Nc3ccc(C)c(NC(=O)c4c[nH]cn4)c3)cc2C(F)(F)F)CC1 | 5430
15 | CCN1CCN(Cc2ccc(C(=O)Nc3ccc(C)c(NC(=O)c4ncc[nH]4)c3)cc2C(F)(F)F)CC1 | 5780
16 | Cc1ccc(NC(=O)c2ccc(C(F)(F)F)nc2)cc1NC(=O)c1cnc2cccnn12 | > 10000
17 | Cc1ccc(NC(=O)c2ccc(C(F)(F)F)nc2)cc1NC(=O)c1cnc2ccccn12 | 25
18 | Cc1ccc(NC(=O)c2ccc(C(F)(F)F)nc2)cc1NC(=O)c1cnn2ccccc12 | 27
19 | Cc1ccc(NCc2ccc(C(F)(F)F)nc2)cc1NC(=O)c1cnc2cccnn12 | > 10000
20 | Cc1ccc(NCc2ccc(C(F)(F)F)nc2)cc1NC(=O)c1cnc2ccccn12 | 3150
21 | Cc1ccc(NCc2ccc(C(F)(F)F)nc2)cc1NC(=O)c1cnn2ccccc12 | 5770
22 | Cc1cn(-c2cc(NC(=O)c3ccc(C)c(NC(=O)c4cnc5cccnn45)c3)cc(C(F)(F)F)c2)cn1 | 1820
23 | Cc1cn(-c2cc(NC(=O)c3ccc(C)c(NC(=O)c4cnc5ccccn45)c3)cc(C(F)(F)F)c2)cn1 | 486
24 | CNC(=O)c1cc(Oc2ccc3nc(N[C@H]4CCCC[C@H]4O)sc3c2)ccn1 | 245
25 | Cc1cn(-c2cc(NC(=O)c3ccc(C)c(Nc4nccc(-c5cccnc5)n4)c3)cc(C(F)(F)F)c2)cn1 [AMN 107] | 534

Source: BindingDB's records for doi:10.1016/j.ejmech.2021.113298 (Chung-Ang University, 2021)
